Measurements: patent US4328242A, “α-(3,4,5-Trimethoxyhenzoyl)thiopropionyl-glycine” (Ausoria Farmaceutici S.r.l., priority 1980, dated 1982)

What was measured:
[1] = tested on: albino Sprague-Dawley rats; assay: Toxicity in the fetus, rats; assay type: in vivo; conditions: daily oral and subcutaneous, 250 and 500 mg/kg, four weeks prior to coupling and twenty days of gestation
Source text: Toxicity in the fetus of TBPG has been studied in albino Sprague-Dawley rats and in New Zealand rabbits. In the case of rats both male and female, the treatment has been initiated four weeks prior to coupling and then has been continued only in the females during the twenty days of gestation.
In the case of female rabbits, the treatment has been carried out during the twenty eight days of gestation.

[2] = assay type: in vivo; conditions: rats, oral route, equimolar doses
[3] = biological target: T1, glutathione peroxidase (GSHP) (Homo sapiens, UniProt P07203); assay: Action on the glutathione peroxidase (GSHP); assay type: biochemical; conditions: system glutathione/NADPH/GSH-reductase/cumene hydroperoxide; read-out: apparent Ki
T1 sequence (P07203 1-203): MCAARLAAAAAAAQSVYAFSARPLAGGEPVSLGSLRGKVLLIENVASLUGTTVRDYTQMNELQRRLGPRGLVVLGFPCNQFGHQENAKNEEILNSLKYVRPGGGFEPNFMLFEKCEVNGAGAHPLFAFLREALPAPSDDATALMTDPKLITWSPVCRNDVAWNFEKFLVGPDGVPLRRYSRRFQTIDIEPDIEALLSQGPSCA
Source text: The experiment has been carried out for the purpose of determining the inhibitory activity if any of TBPG with respect to GSHP, an enzyme well known connected with phlogistic processes.
The results have been obtained using the system glutathione/NADPH/GSH-reductase/cumene hydroperoxide and have shown that TBPG is capable of exerting an inhibitory activity on GSHP with an apparent Ki 5.4.10^-3 molar.

guinea pigs = assay: Protective activity in subacute bronchitis induced by inhalation of citric acid; assay type: in vivo; conditions: 7.5% citric acid inhalation, oral, rectal or inhalation, 50 and 200 mg/kg, two weeks
[4] = Isothermic (accelerated) stability according to the method of Garret, TLC; assay type: physicochemical
Protocol: The tests of accelerated stability have been carried out with the substance in powder form, that is in glass vials, hermetically closed with a plastic screw cap and also with the substance dissolved in water, that is 500 mg in 10 cc in a transparent glass container of 20 cc capacity closed with a plastic screw cap.
The production of impurities, if any, due to degradation of the substance, has been determined by means of TLC.

[5] = Clinical tolerance with respect to gastric reactions; conditions: in vivo
rats [6] = assay: Protective activity of the liver in the intoxication caused by CCl4 (BSF elimination); assay type: in vivo; conditions: rats intoxicated with CCl4; 200 and 400 mg/kg orally, 14 days; BSF 10 mg/kg i.v. on day 15; proportionate to the dosage
Protocol: The animals, that is rats, were intoxicated with CCl4 for a period of seven days. They were treated during the same days and for a subsequent period of seven days with TBPG in the dose of 200 and 400 mg/kg orally and with α-mercaptopropionylglycine in the dose of 90 and 180 mg/kg orally. On the fifteenth day, the rats have been treated with BSF in the amount of 10 mg/kg intravenously.

rats [7] = assay: Chronic toxicity in rats; assay type: in vivo; conditions: 24 weeks, 125 and 250 mg/kg oral, 200 mg/kg by inhalation
Protocol: The chronic toxicity of TBPG has been investigated in rats and dogs treated for a period of 24 weeks with 125 mg/kg and 250 mg/kg by the oral route and 200 mg/kg by inhalation.

Acute toxicity in mice = assay type: in vivo; conditions: mouse, in vivo; for mortality at 240 h: read-out: % Death; for LD50 at 240 h: 10 days observation, probits, read-out: DL50 mg/kg (Confidential Limits)
Mice = assay: Acute toxicity in mice; assay type: in vivo; conditions: 20 tested
Acute toxicity in rats = assay type: in vivo; conditions: rat, in vivo; for mortality at 240 h: read-out: % Death; for LD50 at 240 h: 10 days observation, probits, read-out: DL50 mg/kg (Confidential Limits)
Protocol: (§1) The acute toxicity has been studied with Swiss albino rats and Wistar albino rats and in both instances, animals of both sexes have been used. The product is administered orally and endoperitoneally and the period of observation is ten days after the initial treatment. The values of DL50 by the statistical method with confidential limits up to 95% are calculated by means of the method of probits reported in Table I. Probits is a statistical unit of probable deviation used in biological assays; equal to the normal equivalent deviate increased by 5, used to make all normal equivalent deviation values positive.

Rats [8] = assay: Acute toxicity in rats; assay type: in vivo; conditions: 20 tested
Protocol: as §1

rats [9] = assay: Regenerative action in partial hepatectomy; assay type: in vivo; conditions: partial hepatectomy (70% excision), 200 and 400 mg/kg oral, six days

COc1cc(C(=O)SC(C)C(=O)NCC(=O)O)cc(OC)c1OC (stereo not drawn) [TBPG, α-(3,4,5-trimethoxybenzoyl)thiopropionylglycine]
toxicity in the fetus (deformation, number and weight of living offspring) [1]: has not induced any deformation in the fetus and has not affected the number and the weight of the living offspring
concentration in the kidney [2]: high concentrations in the kidney
distribution in the organs [2]: sufficiently homogenous
content in the lungs with respect to α-mercaptopropionylglycine ([2]; statistically significant): substantially higher content in the lungs
Ki [3]: 5.4 mM
mortality index (guinea pigs): substantially reduced
protective action on bronchial conditions (macro and micro examination of the lungs) (guinea pigs): effective protective action in proportion to the dose
Chromatographic Impurities ([4]; Powder, 60°, 320 hours): Absent
Chromatographic Impurities ([4]; Powder, 70°, 120 hours): Absent
Chromatographic Impurities ([4]; Powder, 70°, 240 hours): Absent
Chromatographic Impurities ([4]; Powder, 80°, 45 hours): Absent
Chromatographic Impurities ([4]; Powder, 80°, 180 hours): Absent
Chromatographic Impurities ([4]; Solution (500 mg in 10 cc water), 60°, 0 hours): Absent
Chromatographic Impurities ([4]; Solution (500 mg in 10 cc water), 60°, 320 hours): Absent
degraded at 640 h ([4]; Solution (500 mg in 10 cc water), 60°, 640 hours, read-out: Chromatographic Impurities): 0.5%
degraded at 960 h ([4]; Solution (500 mg in 10 cc water), 60°, 960 hours, read-out: Chromatographic Impurities): 0.7%
degraded at 1280 h ([4]; Solution (500 mg in 10 cc water), 60°, 1280 hours, read-out: Chromatographic Impurities): 1.2%
degraded at 1600 h ([4]; Solution (500 mg in 10 cc water), 60°, 1600 hours, read-out: Chromatographic Impurities): 1.3%
Chromatographic Impurities ([4]; Solution (500 mg in 10 cc water), 70°, 180 hours): Absent
degraded at 240 h ([4]; Solution (500 mg in 10 cc water), 70°, 240 hours, read-out: Chromatographic Impurities): 1.1%
degraded at 480 h ([4]; Solution (500 mg in 10 cc water), 70°, 480 hours, read-out: Chromatographic Impurities): 1.2%
Chromatographic Impurities ([4]; Solution (500 mg in 10 cc water), 80°, 45 hours): Absent
degraded at 90 h ([4]; Solution (500 mg in 10 cc water), 80°, 90 hours, read-out: Chromatographic Impurities): 1.2%
degraded at 120 h ([4]; Solution (500 mg in 10 cc water), 80°, 120 hours, read-out: Chromatographic Impurities): 1.3%
clinical tolerance with respect to gastric reactions [5]: optimum clinical tolerance
elimination of BSF (hematic concentrations) (rats [6]): favors the elimination of BSF in a statistically significant manner
chronic toxicity (symptoms, behavior, deaths, body growth, hematology, hepatic and renal functions, organs) (rats [7]): totally innocuous
mortality at 240 h (Acute toxicity in mice; ip, 1500 mg/kg): 0%
mortality at 240 h (Acute toxicity in mice; ip, 2000 mg/kg): 40%
mortality at 240 h (Acute toxicity in mice; ip, 2500 mg/kg): 50%
mortality at 240 h (Acute toxicity in mice; ip, 3000 mg/kg): 65%
mortality at 240 h (Acute toxicity in mice; ip, 3500 mg/kg): 90%
LD50 at 240 h (Acute toxicity in mice; ip, 95% limits (2192-2963)): 2530 mg/kg
mortality at 240 h (Acute toxicity in mice; po, orally, 3000 mg/kg): 5%
mortality at 240 h (Acute toxicity in mice; po, orally, 4000 mg/kg): 30%
mortality at 240 h (Acute toxicity in mice; po, orally, 5000 mg/kg): 50%
mortality at 240 h (Acute toxicity in mice; po, orally, 6000 mg/kg): 75%
mortality at 240 h (Acute toxicity in mice; po, orally, 7000 mg/kg): 90%
LD50 at 240 h (Acute toxicity in mice; po, orally, 95% limits (4539-5254)): 4860 mg/kg
No. of Animals Dead (Mice; i.p., 1500 mg/kg): 0
No. of Animals Dead (Mice; i.p., 2000 mg/kg): 8
No. of Animals Dead (Mice; i.p., 2500 mg/kg): 10
No. of Animals Dead (Mice; i.p., 3000 mg/kg): 13
No. of Animals Dead (Mice; i.p., 3500 mg/kg): 18
No. of Animals Dead (Mice; orally, 3000 mg/kg): 1
No. of Animals Dead (Mice; orally, 4000 mg/kg): 6
No. of Animals Dead (Mice; orally, 5000 mg/kg): 10
No. of Animals Dead (Mice; orally, 6000 mg/kg): 15
No. of Animals Dead (Mice; orally, 7000 mg/kg): 18
mortality at 240 h (Acute toxicity in rats; ip, 1500 mg/kg): 0%
mortality at 240 h (Acute toxicity in rats; ip, 2000 mg/kg): 30%
mortality at 240 h (Acute toxicity in rats; ip, 2500 mg/kg): 45%
mortality at 240 h (Acute toxicity in rats; ip, 3000 mg/kg): 70%
mortality at 240 h (Acute toxicity in rats; ip, 3500 mg/kg): 85%
LD50 at 240 h (Acute toxicity in rats; ip, 95% limits (2483-2887)): 2670 mg/kg
mortality at 240 h (Acute toxicity in rats; po, orally, 3000 mg/kg): 5%
mortality at 240 h (Acute toxicity in rats; po, orally, 4000 mg/kg): 30%
mortality at 240 h (Acute toxicity in rats; po, orally, 5000 mg/kg): 45%
mortality at 240 h (Acute toxicity in rats; po, orally, 6000 mg/kg): 60%
mortality at 240 h (Acute toxicity in rats; po, orally, 7000 mg/kg): 85%
LD50 at 240 h (Acute toxicity in rats; po, orally, 95% limits (4879-5873)): 5230 mg/kg
No. of Animals Dead (Rats [8]; i.p., 1500 mg/kg): 0
No. of Animals Dead (Rats [8]; i.p., 2000 mg/kg): 6
No. of Animals Dead (Rats [8]; i.p., 2500 mg/kg): 9
No. of Animals Dead (Rats [8]; i.p., 3000 mg/kg): 14
No. of Animals Dead (Rats [8]; i.p., 3500 mg/kg): 17
No. of Animals Dead (Rats [8]; orally, 3000 mg/kg): 1
No. of Animals Dead (Rats [8]; orally, 4000 mg/kg): 6
No. of Animals Dead (Rats [8]; orally, 5000 mg/kg): 9
No. of Animals Dead (Rats [8]; orally, 6000 mg/kg): 12
No. of Animals Dead (Rats [8]; orally, 7000 mg/kg): 17
regeneration of the hepatic tissue (rats [9]): favoring the regeneration of the hepatic tissue in statistically significant manner
